Literature values as cited in US9750251B2, “Liquid herbicidal preparations” (BAYER INTELLECTUAL PROPERTY GMBH, priority 2008, dated 2017).
Converted amounts (≈) assume the structure as drawn.

Conditions: at 25° C.

For `CCOC1Oc2ccc(OS(C)(=O)=O)cc2C1(C)C` (racemic) [ethofumesate], the water solubility is given as 50 µg/mL (≈ 175 µM).
